# Assay: accelerated stability test
# Assay type: physicochemical
# Conditions: compared with the known crystalline forms of R-(+)-α-lipoic acid
# Source text: Since it is a pharmaceutically active molecule which is notoriously very reactive and tends to polymerise, improved stability obviously represents a very important quality.
structure (smiles),measurement,value
"O=C(O)CCCCC1CCSS1 (stereo not drawn) [new crystalline form, R-(+)-α-lipoic acid]",stability of the crystalline form,more stable than the known crystalline forms

# Reference: patent US20140309293A1, “CRYSTALLINE FORM” (L[…] INTE[…].P. A., priority 2011, published 2014)
